# Patent US12178840B2, “Method and compositions comprising a CT20 peptide” (UNIVERSITY OF CENTRAL FLORIDA RESEARCH FOUNDATION, INC., priority 2014, dated 2024)
# Residues, ends and D or L forms follow the SMILES beside them.
# Key:
# [1] = test system: MDA-MB-231 cells; experiment: Migration assay (Oris exclusion zone); assay type: cell-based, human; details: 24 hours treatment, 10 hours migration
# Experimental: Migration assay: The Oris cell migration assembly kit (Platypus Technologies) was used. Cells were stained with CellTrace Violet (Life Technologies) according to manufacturer's protocol. Stoppers were placed in wells of a 96-well plate before cells were seeded at a density of 30,000 cells per well. For experiments involving CT20p treatment, treatments with CT20p were began 18 hours following seeding and allowed to continue for 24 hours. Treatments were done in quadruplicate. At the end of the treatment period, stoppers were removed to create an exclusion zone that the cells would migrate into. MDA-MB-231 cells were allowed to migrate for 10 hours. MCF-10A and MCF-10A EMT cells were allowed to migrate for 20 hours. Following the migration period, fluorescent images were obtained using a Plate Runner HD (Trophos). […] Images were analyzed by ImageJ software (NIH) by using the wand tool to automatically define and measure the migration zone. % closure was calculated as [(pre migration area−migration area)/pre migration area]×100.
# Observations on the effects of CT20p on breast cancer cells include loss of actin distribution throughout the cell, especially in the filapodia (FIG. 3C). […] Immediately following removal of the stoppers, the pre-migration area can be determined. […] After quantification of the areas as described in Materials & Methods, % closure was calculated for each condition (FIG. 11B). […]
# [2] = test system: cells isolated from paired normal tissue; experiment: Lethality in cells isolated from paired normal tissue; assay type: cell-based, human; details: CT20 peptide in HBPE-NPs
# Text: 40× magnification. CCTβ was detected in invasive breast cancer.
# The lethality of CT20 was also examined in cells isolated from primary breast tumors and paired normal tissue. […] To this end, the levels of CCTβ were examined in a pilot tissue array of breast cancer tissue cores by immunohistochemistry (IHC) and detected CCTβ in invasive breast cancer (FIG. 14B).
smiles,measurement,setting,value
CC[C@H](C)[C@H](NC(=O)[C@@H](NC(=O)[C@H](CC(C)C)NC(=O)[C@H](CO)NC(=O)[C@H](C)NC(=O)[C@@H](NC(=O)[C@H](CC(C)C)NC(=O)[C@@H](NC(=O)CNC(=O)[C@H](C)NC(=O)[C@@H](NC(=O)[C@H](Cc1ccccc1)NC(=O)[C@@H](NC(=O)[C@@H](NC(=O)[C@@H](NC(C)=O)C(C)C)[C@@H](C)O)[C@@H](C)CC)C(C)C)C(C)C)[C@@H](C)O)[C@@H](C)O)C(=O)N[C@@H](Cc1c[nH]c2ccccc12)C(=O)N[C@@H](CCCCN)C(=O)N[C@@H](CCCCN)C(=O)N[C@@H](CCSC)C(=O)NCC(N)=O [CT20] (Ac-VTIFVAGVLTASLTIWKKMG-NH2),Effect on migration (% closure of exclusion zone),[1]; 75 μg/mL,significantly impaired movement
same,Effect on migration (% closure of exclusion zone),[1]; 150 μg/mL,nearly eliminated
same,Lethality,[2],not the normal cells
